Test systems include ACHN renal; CAKI-1 renal; HCT-15 colon; HOP-92 NSCLC; M14 melanoma; MALME-3M melanoma; NCI-H226 lung; OVCAR-3 ovarian; SF-295 CNS; SNB-19 CNS.
What all share (assay): NCI tumour cell line growth inhibition, 48 h

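Step 1: Grow cells in 96-well plates. Step 2: Expose to compound for 48 hours at 5 concentrations. Step 3: Interpolate endpoints linearly; if unreached, use highest concentration. At the GI50, growth is halved. TGI denotes the concentration required for complete inhibition of growth.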

As for `Cc1cccc(C(C)(C)C)c1NC(=O)C(=O)Cc1nc2ccccc2s1`, the TGI in the assay on ACHN renal, with CAKI-1 renal, with HCT-15 colon, with HOP-92 NSCLC, with M14 melanoma and in the assay on MALME-3M melanoma was above 100 µM throughout. Also, the TGI in the assay on NCI-H226 lung, in the assay with OVCAR-3 ovarian, with SF-295 CNS and in the assay on SNB-19 CNS was above 100 µM in each case.

For the compound `COc1cc2c(NCCCCCCO[N+](=O)[O-])ncnc2c(OC)c1OC`, the TGI is above 100 µM with ACHN renal; 62.3 µM in the assay on CAKI-1 renal; 72.7 µM in the assay with HCT-15 colon; 47.1 µM with HOP-92 NSCLC; 36.8 µM in the assay on M14 melanoma; 31.9 µM in the assay with MALME-3M melanoma. In addition, the TGI is 45.5 µM in the assay on NCI-H226 lung, above 78 µM in the assay with OVCAR-3 ovarian, 58.8 µM in the assay with SF-295 CNS and above 100 µM in the assay with SNB-19 CNS.

For `CN1CCN(Cc2ccc(NC(=O)c3cncc(C#Cc4cnc(N)c5ccccc45)c3)cc2C(F)(F)F)CC1`, the GI50 in the assay with ACHN renal was 0.145 µM; in the assay with CAKI-1 renal, 0.271 µM; in the assay on HCT-15 colon it was 0.124 µM; with HOP-92 NSCLC, 0.401 µM; with M14 melanoma it was 0.133 µM; in the assay on MALME-3M melanoma, 0.315 µM. The GI50 with NCI-H226 lung was 0.393 µM; in the assay on OVCAR-3 ovarian, 0.41 µM; in the assay on SF-295 CNS, 0.486 µM; in the assay with SNB-19 CNS, 0.563 µM. Besides, the TGI amounted to 0.523 µM in the assay on ACHN renal; 0.7 µM in the assay with CAKI-1 renal; 0.534 µM in the assay on HCT-15 colon; 1.25 µM in the assay on HOP-92 NSCLC; 0.551 µM in the assay on M14 melanoma; 0.774 µM in the assay with MALME-3M melanoma. Further, the TGI in the assay with NCI-H226 lung came out at 1.13 µM; in the assay with OVCAR-3 ovarian, 0.967 µM; in the assay on SF-295 CNS, 0.955 µM; with SNB-19 CNS, 1.22 µM.

As to `CN(C)S(=O)(=O)Nc1ccccn1`, the TGI with ACHN renal, with CAKI-1 renal, in the assay with HCT-15 colon, with HOP-92 NSCLC, in the assay on M14 melanoma and in the assay on MALME-3M melanoma was above 100 µM in each case. Moreover, the TGI in the assay on NCI-H226 lung, in the assay on OVCAR-3 ovarian, with SF-295 CNS and in the assay with SNB-19 CNS was above 100 µM throughout.

In the case of `COc1cc2c(c(O)c1C)C(=O)C(Cl)=CC2=O`, the TGI with ACHN renal was 13.9 µM; in the assay with CAKI-1 renal, 11.6 µM; in the assay with HCT-15 colon it was 27.6 µM; with HOP-92 NSCLC, 11.5 µM; in the assay with M14 melanoma it was 16.5 µM; with MALME-3M melanoma it was 12.5 µM. Also, the TGI in the assay on NCI-H226 lung was 36.5 µM; with OVCAR-3 ovarian it was 24.3 µM; with SF-295 CNS it was 34.4 µM; in the assay on SNB-19 CNS, above 86.4 µM.

As to `CC1(C)N=C(N)N=C(N)N1c1ccc(CCCCc2ccc(S(=O)(=O)F)cc2Cl)c(Cl)c1`, the TGI in the assay with ACHN renal is 142 µM; with CAKI-1 renal, 128 µM; with HCT-15 colon it was 193 µM; in the assay on HOP-92 NSCLC, 48.6 µM; with M14 melanoma, above 382 µM; with MALME-3M melanoma, 33.8 µM. Moreover, the TGI in the assay with NCI-H226 lung turned out to be 158 µM; in the assay with OVCAR-3 ovarian, 87 µM; in the assay with SF-295 CNS, 192 µM; in the assay on SNB-19 CNS, 125 µM.

On to `C#CC(C)(C)Oc1cc(O)c2c(=O)c3ccccc3n(C)c2c1`, for which the TGI with ACHN renal, with CAKI-1 renal, in the assay on HCT-15 colon, in the assay with HOP-92 NSCLC, in the assay on M14 melanoma and in the assay with MALME-3M melanoma was above 100 µM in each case. In addition, the TGI in the assay with NCI-H226 lung, with OVCAR-3 ovarian, in the assay on SF-295 CNS and in the assay on SNB-19 CNS was above 100 µM each time.

Consider `C[Si](C)(C)c1ccc(CC2(Cc3ccc([Si](C)(C)C)cc3)CCNC2)cc1`, for which the TGI was 9.37 µM in the assay with ACHN renal; 5.29 µM in the assay on CAKI-1 renal; 4.86 µM in the assay with HCT-15 colon; 3.18 µM in the assay with HOP-92 NSCLC; 3.31 µM with M14 melanoma; 11.6 µM in the assay with MALME-3M melanoma. Also, the TGI with NCI-H226 lung was determined as 3.34 µM; in the assay on OVCAR-3 ovarian, 3.93 µM; with SF-295 CNS, 6.86 µM; with SNB-19 CNS, 13.7 µM.

For the compound `CCCNC(=O)OCc1c(COC(=O)NCCC)c(-c2ccc(Cl)c(Cl)c2)n2c1CCC2`, the TGI was 6.28 µM in the assay with ACHN renal; 8.2 µM with CAKI-1 renal; 19.8 µM in the assay on HCT-15 colon; 9.98 µM in the assay with HOP-92 NSCLC; 24.4 µM in the assay on M14 melanoma; 9.72 µM in the assay with MALME-3M melanoma. Also, the TGI in the assay on NCI-H226 lung was 7.53 µM; in the assay on OVCAR-3 ovarian, 41.5 µM; with SF-295 CNS it was 12.3 µM; in the assay on SNB-19 CNS it was 39.1 µM.

Take `O=C1Oc2cc3c(c4cccc1c24)OCN(c1ccc(Cl)cc1)C3`: the TGI was above 100 µM in the assay on ACHN renal; above 100 µM in the assay with CAKI-1 renal; above 64.7 µM with HCT-15 colon; 49.1 µM in the assay on HOP-92 NSCLC; above 57.8 µM in the assay with M14 melanoma; above 60.7 µM in the assay with MALME-3M melanoma. In addition, the TGI in the assay on NCI-H226 lung was above 100 µM; in the assay with OVCAR-3 ovarian, above 57.4 µM; in the assay with SF-295 CNS it was above 100 µM; in the assay with SNB-19 CNS it was above 100 µM.

Take `O=[n+]1c(CBr)c(CBr)n([O-])c2ccccc21`: the GI50 is 1.76 µM in the assay on ACHN renal; 12 µM in the assay on CAKI-1 renal; 1.82 µM in the assay on HCT-15 colon; 4.61 µM in the assay on HOP-92 NSCLC; 4.65 µM in the assay with M14 melanoma; 1.47 µM with MALME-3M melanoma. The GI50 in the assay on NCI-H226 lung was 11.7 µM; in the assay with OVCAR-3 ovarian, 1.79 µM; in the assay with SF-295 CNS, 17.2 µM; with SNB-19 CNS it was 17.6 µM. The TGI amounted to 3.18 µM in the assay with ACHN renal; 24.5 µM in the assay with CAKI-1 renal; 3.48 µM in the assay with HCT-15 colon; 17.8 µM in the assay with HOP-92 NSCLC; 17.6 µM with M14 melanoma; 3.15 µM in the assay on MALME-3M melanoma. Besides, the TGI stood at 30.7 µM with NCI-H226 lung, 3.25 µM in the assay on OVCAR-3 ovarian, 36 µM with SF-295 CNS and 38.3 µM with SNB-19 CNS.

The values are drawn from PubChem BioAssay (NCI).
